Our source for the EC50 values is patent US11666577B2 (National Institute of Biological Sciences, Beijing, priority 2018, dated 2023).

In one assay the test system is HT-29 cells. In words: Necroptosis assay (TNF-α/Smac mimetic/z-VAD, TSZ-induced) in HT-29 cells. Format: cell-based, human. Conditions: Homo sapiens; Series 1 (Table 1) compounds 1-146; HT-29 cells, TNF-α/Smac mimetic/z-VAD, 24 hrs, cell viability by ATP level; read-out: Series 1 compound necroptosis activity. Here is the method: Methods: HT-29 cells were cultured in McCoy's 5 A culture medium (Invitrogen). On day one, HT-29 cells were plated in 96-well assay plates at density of 2,500-3,500 cells per well. On day two, necrosis were induced by adding 20 ng/ml TNF-α (T), 100 nM Smac mimetic (S), and […] z-VAD (Z). At the same time, 10 mM compound from a chemical library of ˜200,000 compounds was delivered into each well. After 24 hrs treatment, cell viability was determined by measuring ATP level using the Cell Titer-Glo Luminescent Cell Viability Assay kit. A CellTiter-Glo Assay (Promega) was performed according to the manufacturer's instructions. Luminescence was recorded with a PerkinElmer EnSpire Multimode Plate Reader. Survived cells were normalized to those cells treated with DMSO. RIPA-56 was used as a positive control for screening necroptosis inhibitors. Data are represented as mean±standard deviation of duplicates.
In previous work, we performed a cell-based high-throughput screen to identify necroptosis inhibitors using a chemical library of ˜200,000 compounds and identified multiple compounds that protected human colorectal adenocarcinoma (HT-29) cells from TNF-α/Smac mimetic/Z-VAD-fmk (TSZ)-induced necroptosis.^[4]
The anti-necroptosis potency of compounds 7-12 and 14-18 was evaluated in the HT-29 cell line; the EC50 values are shown in Table B.
[a] Necroptosis was induced in HT-29 cells for 24 h; the EC50 values given here are the mean values of at least three independent analyses.
As to `Cn1c(=O)c2c(nc(S(=O)(=O)CC3CC3)n2C)n(Cc2cccc(Br)c2)c1=O` [Compound 140, 3-(3-bromobenzyl)-8-((cyclopropylmethyl)sulfonyl)-1,7-dimethyl-1H-purine-2,6(3H,7H)-dione], the EC50 fell in the range of 1 to 100 µM. On the same count and under the same terms, the figure for `C#CCn1c(=O)n(C)c(=O)c2c1nc(S(C)(=O)=O)n2C` [Compound 106, 1,7-dimethyl-8-(methylsulfonyl)-3-(prop-2-ynyl)-1H-purine-2,6(3H,7H)-dione] is 1 to 10 µM. On the same count and under the same terms, next, `COc1ccc(OC)c(Cn2c(=O)n(C)c(=O)c3c2nc(S(=O)(=O)Cc2cc(OC)ccc2OC)n3C)c1` [Compound 129, 3-(2,5-dimethoxybenzyl)-8-(2,5-dimethoxybenzylsulfonyl)-1,7-dimethyl-1H-purine-2,6(3H,7H)-dione]: 1 to 100 µM; `Cn1c(=O)c2c(nc(S(=O)(=O)Cc3cc(Cl)cc(Cl)c3)n2C)n(C)c1=O` [Compound 56, 8-(3,5-dichlorobenzylsulfonyl)-1,3,7-trimethyl-1H-purine-2,6(3H,7H)-dione]: 1 to 100 µM. Still for that read-out and setting: next, `Cn1c(=O)c2c(nc(S(=O)(=O)Cc3ccccc3)n2C)n(C)c1=O` [Compound 21, 8-(benzylsulfonyl)-1,3,7-trimethyl-1H-purine-2,6(3H,7H)-dione]: 1 to 100 µM; `Cn1c(=O)c2c(nc(S(=O)(=O)CC3CC3)n2C)n(Cc2ccccc2Br)c1=O` [Compound 139, 3-(2-bromobenzyl)-8-((cyclopropylmethyl)sulfonyl)-1,7-dimethyl-1H-purine-2,6(3H,7H)-dione]: 1 to 100 µM.

The assay is the same for the next values; noted with them: Homo sapiens; Series 2 (Table 2) compounds; HT-29 necroptosis assay; read-out: Series 2 compound necroptosis activity.
`Cn1c(=O)c2c(nc(S(C)(=O)=O)n2C)n(CC#Cc2cccc(NCCN3CCOCC3)c2)c1=O` [Compound 14]: the EC50 lay in the range of 0.001 to 0.1 µM. Still for that read-out and setting: next, `Cn1c(=O)c2c(nc(S(C)(=O)=O)n2C)n(CC#Cc2cccc(NC(=O)c3ccccc3)c2)c1=O` [Compound 11]: 0.001 to 0.1 µM. For the compound `CN(C)CCOc1cc(C#CCn2c(=O)n(C)c(=O)c3c2nc(S(C)(=O)=O)n3C)cc(NC(=O)C2CC2)c1` [Compound 42], the EC50 lay in the range of 0.001 to 0.1 µM. On the same count and under the same terms, next, `Cn1c(=O)c2c(nc(S(=O)(=O)CC3CC3)n2C)n(CC#Cc2cccc(NCCN3CCOCC3)c2)c1=O` [Compound 19]: 0.001 to 0.1 µM; `CC(C)Nc1cc(C#CCn2c(=O)n(C)c(=O)c3c2nc(S(=O)(=O)CC2CC2)n3C)ccn1` [Compound 35]: 0.001 to 0.1 µM; `Cn1c(=O)c2c(nc3n2CCS3(=O)=O)n(CC#Cc2cccc(NCCN3CCOCC3)c2)c1=O` [Compound 67]: 0.001 to 0.1 µM. The same measure, in the same setting: next, `CCNc1cc(C#CCn2c(=O)n(C)c(=O)c3c2nc(S(=O)(=O)CC2CC2)n3C)ccn1` [Compound 33]: 0.001 to 0.1 µM; `COCCn1c(S(C)(=O)=O)nc2c1c(=O)n(C)c(=O)n2C` [Compound 6]: 10 to 100 µM.

Still in this assay, the particulars now being: Series 1 (Table 1) compounds 1-146; HT-29 cells, TNF-α/Smac mimetic/z-VAD, 24 hrs, cell viability by ATP level; read-out: Series 1 compound necroptosis activity.
`Cn1c(=O)c2c(nc(S(=O)(=O)Cc3cccc(Br)c3)n2C)n(C)c1=O` [Compound 33, 8-(3-bromobenzylsulfonyl)-1,3,7-trimethyl-1H-purine-2,6(3H,7H)-dione]: the EC50 lay in the range of 1 to 1000 µM.

Take `CSc1nc2c(c(=O)[nH]c(=O)n2C)n1C` [Compound 87, 3,7-dimethyl-8-(methylthio)-1H-purine-2,6(3H,7H)-dione]: the EC50 fell in the range of 1 to 1000 µM. For the compound `Cn1c(=O)c2c(nc(S(=O)(=O)Cc3cccc(F)c3)n2C)n(C)c1=O` [Compound 27, 8-(3-fluorobenzylsulfonyl)-1,3,7-trimethyl-1H-purine-2,6(3H,7H)-dione], the EC50 is 1 to 1000 µM. Same read-out and setting: the figure for `Cn1c(=O)c2c(nc(S(=O)(=O)Cc3cccc(C#N)c3)n2C)n(C)c1=O` [Compound 43, 3-((1,3,7-trimethyl-2,6-dioxo-2,3,6,7-tetrahydro-1H-purin-8-ylsulfonyl)methyl)benzonitrile] is 1 to 1000 µM; for `COc1cccc(CS(=O)(=O)c2nc3c(c(=O)n(C)c(=O)n3C)n2C)c1OC` [Compound 61, 8-(2,3-dimethoxybenzylsulfonyl)-1,3,7-trimethyl-1H-purine-2,6(3H,7H)-dione] it is 1 to 1000 µM. The same measure, in the same setting: next, `Cn1c(=O)c2c(nc(S(=O)(=O)Cc3ccc[n+]([O-])c3)n2C)n(C)c1=O` [Compound 51, 3-((1,3,7-trimethyl-2,6-dioxo-2,3,6,7-tetrahydro-1H-purin-8-ylsulfonyl)methyl)pyridine 1-oxide]: 1 to 1000 µM; `Cn1c(=O)c2c(nc(S(=O)(=O)CCc3cn(CCOCCOCCOCCNC(=O)CCCC[C@@H]4SCC5NC(=O)NC54)nn3)n2C)n(C)c1=O` (stereo partly drawn) [Compound 25, 5-((4S)-2-oxohexahydro-1H-thieno[3,4-d]imidazol-4-yl)-N-(2-(2-(2-(2-(4-(2-(1,3,7-trimethyl-2,6-dioxo-2,3,6,7-tetrahydro-1H-purin-8-ylsulfonyl)ethyl)-1H-1,2,3-triazol-1-yl)ethoxy)ethoxy)ethoxy)ethyl)pentanamide]: 1 to 1000 µM; `Cn1c(=O)c2c(nc(S(=O)(=O)Cc3ccccc3F)n2C)n(C)c1=O` [Compound 26, 8-(2-fluorobenzylsulfonyl)-1,3,7-trimethyl-1H-purine-2,6(3H,7H)-dione]: 1 to 1000 µM.

Take `Cn1c(=O)c2c(nc(S(C)(=O)=O)n2CC#N)n(C)c1=O` [Compound 84, 2-(1,3-dimethyl-8-(methylsulfonyl)-2,6-dioxo-2,3-dihydro-1H-purin-7(6H)-yl)acetonitrile]: the EC50 lay within 1 to 1000 µM. Consider `CC[S+]([O-])c1nc2c(c(=O)n(C)c(=O)n2C)n1C` (stereo not shown) [Compound 6, 8-(ethylsulfinyl)-1,3,7-trimethyl-1H-purine-2,6(3H,7H)-dione], for which the EC50 is 1 to 1000 µM. As to `Cn1c(S(C)(=O)=O)nc2c1c(=O)n(Cc1ccccc1)c(=O)n2C` [Compound 93, 1-benzyl-3,7-dimethyl-8-(methylsulfonyl)-1H-purine-2,6(3H,7H)-dione], the EC50 is 1 to 1000 µM.

In the case of `COc1c(Cl)cccc1CS(=O)(=O)c1nc2c(c(=O)n(C)c(=O)n2C)n1C` [Compound 63, 8-(3-chloro-2-methoxybenzylsulfonyl)-1,3,7-trimethyl-1H-purine-2,6(3H,7H)-dione], the EC50 was in the range of 1 to 1000 µM.

For `Cn1c(S(C)(=O)=O)nc2c1c(=O)n(-c1ccccc1)c(=O)n2C` [Compound 92, 3,7-dimethyl-8-(methylsulfonyl)-1-phenyl-1H-purine-2,6(3H,7H)-dione], the EC50 lay within 1 to 1000 µM. On the same count and under the same terms, next, `Cn1c(=O)c2c(nc(S(=O)(=O)Cc3ccccc3Cl)n2C)n(C)c1=O` [Compound 29, 8-(2-chlorobenzylsulfonyl)-1,3,7-trimethyl-1H-purine-2,6(3H,7H)-dione]: 1 to 1000 µM. Still for that read-out and setting: the figure for `COc1ccc(Br)c(OC)c1CS(=O)(=O)c1nc2c(c(=O)n(C)c(=O)n2C)n1C` [Compound 69, 8-(3-bromo-2,6-dimethoxybenzylsulfonyl)-1,3,7-trimethyl-1H-purine-2,6(3H,7H)-dione] is 1 to 1000 µM.

Staying with this assay, now noted: Series 1 (Table 1) compounds 147-176; activity extrapolated; read-out: Series 1 compound necroptosis activity (extrapolated).
With `Cn1c(=O)c2c(nc(S(=O)(=O)CCN)n2C)n(CC#Cc2cccc(O)c2)c1=O` [Compound 150], the EC50 is 1 to 1000 µM. Same read-out and setting: the figure for `Cn1c(=O)c2c(nc(S(=O)(=O)CCO)n2C)n(CC#Cc2cccc(O)c2)c1=O` [Compound 147] is 1 to 1000 µM. Still for that read-out and setting: next, `CNc1cc(C#CCn2c(=O)n(C)c(=O)c3c2nc(S(C)(=O)=O)n3C)ccc1N1CCN(C)CC1` [Compound 175]: 1 to 1000 µM; `Cn1c(=O)c2c(nc(S(C)(=O)=O)n2C)n(CC#Cc2ccc3cc[nH]c3c2)c1=O` [Compound 163]: 1 to 1000 µM; `Cn1c(=O)c2c(nc(S(=O)(=O)CC3CC3)n2C)n(Cc2cn(/C=C/CN)nn2)c1=O` [Compound 172]: 1 to 1000 µM. On the same count and under the same terms, the figure for `C=CC(=O)Nc1cccc(C#CCn2c(=O)n(C)c(=O)c3c2nc(S(=O)(=O)CCO)n3C)c1` [Compound 159] is 1 to 1000 µM. On to `CCCS(=O)(=O)c1nc2c(c(=O)n(C)c(=O)n2CC#Cc2cccc(O)c2)n1C` [Compound 155], for which the EC50 was 1 to 1000 µM. Still for that read-out and setting: next, `Cn1c(=O)c2c(nc3n2CCCS3(=O)=O)n(CC#Cc2cccc(O)c2)c1=O` [Compound 149]: 1 to 1000 µM.

The same assay, now with this note: Series 1 (Table 1) compounds; HT-29 cells, TNF-α/Smac mimetic/z-VAD, 24 hrs, cell viability by ATP level; read-out: Series 1 compound necroptosis activity.
Regarding `Cn1c(=O)c2c(nc(S(=O)(=O)CC3CC3)n2C)n(CC#Cc2ccc(Cl)cc2)c1=O` [Compound 121, 3-(3-(4-chlorophenyl)prop-2-yn-1-yl)-8-((cyclopropylmethyl)sulfonyl)-1,7-dimethyl-3,7-dihydro-1H-purine-2,6-dione], the EC50 is 0.001 to 1 µM. The same measure, in the same setting: next, `CNc1cc(C#CCn2c(=O)n(C)c(=O)c3c2nc(S(=O)(=O)CC2CC2)n3C)ccn1` [Compound 126, 8-((cyclopropylmethyl)sulfonyl)-1,7-dimethyl-3-(3-(2-(methylamino)pyridin-4-yl)prop-2-yn-1-yl)-3,7-dihydro-1H-purine-2,6-dione]: 0.001 to 1 µM.

Still in this assay, the particulars now being: read-out: Series 1 compound necroptosis activity.
As to `COc1cc(CS(=O)(=O)c2nc3c(c(=O)n(C)c(=O)n3C)n2C)cc(OC)c1` [Compound 59, 8-(3,5-dimethoxybenzylsulfonyl)-1,3,7-trimethyl-1H-purine-2,6(3H,7H)-dione], the EC50 lay within 1 to 1000 µM.
